This is an account of results in ChEMBL document CHEMBL4382231, “Chemical preparation, biological evaluation and 3D-QSAR of ethoxysulfuron derivatives as novel antifungal agents targeting acetohydroxyacid synthase” (Eur J Med Chem, 2019).

Experiment [1] concerns Candida albicans. The experiment can be described thus: Antifungal activity against Candida albicans SC5314 cultured in YNB media after 24 hrs by broth microdilution method. Type of experiment: functional. Particulars: SC5314, 24 h.
Experiment [2] concerns Candida albicans. The experiment is described as follows: Antifungal activity against Candida albicans SC5314 cultured in RPMI 1640 media after 24 hrs by broth microdilution method. Conditions: SC5314, 24 h. Type of experiment: functional. For orientation: Broth dilution looks for growth in wells or tubes with falling amounts of substance.
A short description of experiment [3]: Inhibition of Candida albicans AHAS catalytic subunit using pyruvate as substrate measured after 30 mins by colorimetric method.

For `Cc1cc(Cl)nc(NC(=O)[N-]S(=O)(=O)Oc2ccc([N+](=O)[O-])cc2)n1.[Na+]`, the MIC in experiment [1] and in experiment [2] was > 100 µg/mL each time. In addition, the inhibition constant Ki in experiment [3] is > 50000 nM.

Turning to `COc1cc(C)nc(NC(=O)[N-]S(=O)(=O)Oc2ccccc2OCCI)n1.[Na+]`, the minimum inhibitory concentration (MIC) in experiment [1] was 10 µg/mL; in experiment [2], > 100 µg/mL. In experiment [3], this molecule yielded an inhibition constant Ki of 91 nM. The pKi in experiment [3] was 7.04.

`CCOC(=O)c1ccc(OS(=O)(=O)[N-]C(=O)Nc2nc(C)cc(Cl)n2)cc1.[Na+]`: the MIC in experiment [1] and in experiment [2] was > 100 µg/mL throughout. The inhibitory constant (Ki) in experiment [3] is > 50000 nM.

With `CCOC(=O)c1ccccc1OS(=O)(=O)[N-]C(=O)Nc1nc(Br)cc(OC)n1.[Na+]`, the minimum inhibitory concentration (MIC) in experiment [1] was > 100 µg/mL. Also, the MIC in experiment [2] is > 100 µg/mL. In experiment [3], this molecule came in with a Ki of 10.8 nM and a pKi of 7.96.

Consider `COc1cc(Cl)nc(NC(=O)[N-]S(=O)(=O)Oc2ccccc2OCCI)n1.[Na+]`, for which, in experiment [1], the MIC was > 100 µg/mL. The minimal inhibitory concentration (MIC) in experiment [2] is > 100 µg/mL. In experiment [3], the inhibitory constant (Ki) worked out at 583 nM and the negative-log Ki (pKi) is 6.23.

In experiment [1], `CCOC(=O)c1ccccc1OS(=O)(=O)[N-]C(=O)Nc1nc(I)cc(OC)n1.[Na+]` came in with an MIC of 10 µg/mL. The molecule further yielded a minimal inhibitory concentration (MIC) in experiment [2] of 100 µg/mL. Further, in experiment [3], affinity was put at a Ki of 11.5 nM and the negative-log Ki (pKi) worked out at 7.91.

Consider `COc1cc(I)nc(NC(=O)[N-]S(=O)(=O)Oc2ccccc2C(=O)OCCCl)n1.[Na+]`, for which the MIC in experiment [1] is > 100 µg/mL. For the same molecule, the MIC in experiment [2] was > 100 µg/mL. In experiment [3], this molecule displayed an inhibition constant Ki of 740 nM and a pKi of 6.13.

Regarding `CCOC(=O)c1ccccc1OS(=O)(=O)[N-]C(=O)Nc1nc(C)cc(C)n1.[Na+]`, in experiment [1], the MIC was > 100 µg/mL. For the same molecule, the MIC in experiment [2] is > 100 µg/mL. Also, in experiment [3], affinity was put at a Ki of 750 nM and the pKi worked out at 6.13.

As to `COc1cc(C)nc(NC(=O)[N-]S(=O)(=O)Oc2ccc([N+](=O)[O-])cc2)n1.[Na+]`, the MIC in experiment [1] and in experiment [2] was > 100 µg/mL throughout. Besides, the Ki in experiment [3] was > 50000 nM.

`COc1cc(OC)nc(NC(=O)[N-]S(=O)(=O)Oc2ccccc2C(=O)OCCI)n1.[Na+]`: the minimum inhibitory concentration (MIC) in experiment [1] and in experiment [2] was > 100 µg/mL in each case. The molecule also yielded a Ki in experiment [3] of 95 nM. Further, the negative logarithm of the Ki (pKi) in experiment [3] was determined as 7.02.

For the molecule `Cc1cc(Cl)nc(NC(=O)[N-]S(=O)(=O)Oc2ccccc2OCCI)n1.[Na+]`, the MIC in experiment [1] is > 100 µg/mL. For the same molecule, in experiment [2], the MIC is > 100 µg/mL. In experiment [3], this molecule registered a Ki of 885 nM and a negative-log Ki (pKi) of 6.05.

Consider `COc1cc(Cl)nc(NC(=O)[N-]S(=O)(=O)Oc2ccccc2C(=O)OC(C)C)n1.[Na+]`, for which the minimal inhibitory concentration (MIC) in experiment [1] is > 100 µg/mL. The MIC in experiment [2] is > 100 µg/mL. Besides, in experiment [3], the Ki turned out to be 4560 nM and the pKi was determined as 5.46.

As for `COc1cc(I)nc(NC(=O)[N-]S(=O)(=O)Oc2ccccc2OCCCl)n1.[Na+]`, the lowest concentration to inhibit growth in experiment [1] (MIC) was 10 µg/mL. In experiment [2], this molecule registered an MIC of 100 µg/mL. Moreover, in experiment [3], the Ki is 68 nM and the pKi worked out at 7.16.

In experiment [1], `CCOC(=O)c1ccccc1OS(=O)(=O)[N-]C(=O)Nc1nc(C)cc(OC)n1.[Na+]` showed an MIC of 10 µg/mL. In experiment [2], the MIC is 25 µg/mL. Further, in experiment [3], the Ki was 7.1 nM and the pKi was 8.16.

Take `CCOC(=O)c1ccc(OS(=O)(=O)[N-]C(=O)Nc2nc(Cl)cc(OC)n2)cc1.[Na+]`: in experiment [1], the MIC is > 100 µg/mL. Moreover, in experiment [2], the MIC is > 100 µg/mL. Further, in experiment [3], the Ki is 15400 nM and the pKi is given as 4.81.

`COC(=O)c1ccccc1OS(=O)(=O)[N-]C(=O)Nc1nc(C)cc(Cl)n1.[Na+]`: the minimum inhibitory concentration (MIC) in experiment [1] was > 100 µg/mL. Further, the MIC in experiment [2] is > 100 µg/mL. In experiment [3], this molecule displayed an inhibition constant Ki of 85.5 nM and a pKi of 7.06.

With `Cc1cc(Cl)nc(NC(=O)[N-]S(=O)(=O)Oc2ccccc2OCCCl)n1.[Na+]`, the minimal inhibitory concentration (MIC) in experiment [1] is > 100 µg/mL. The MIC in experiment [2] is > 100 µg/mL. Besides, in experiment [3], the inhibitory constant (Ki) amounted to 95 nM and the pKi is given as 7.02.

In experiment [3], `COC(=O)c1ccccc1S(=O)(=O)NC(=O)Nc1nccc(C)n1` [MONOSULFURON ESTER] gave a Ki of 16800 nM.

A word on the MIC: it is the least concentration at which growth counts as inhibited. A low value points to inhibition by little substance. What is called Ki is the equilibrium dissociation constant of an inhibitor or competing ligand from its target. A lower Ki goes with a stronger hold on the target. As a reminder, the pKi is −log10 of the Ki, conventionally taken in molar units.
